Source: ChEMBL document CHEMBL1201862, “PubChem BioAssay data set” (2004)
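Grown in 96-well plates, cells were treated for 48 hours with each compound at five concentrations. Insufficient inhibition: endpoint recorded as highest concentration tested. At the GI50, growth is halved.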 Active and inactive are the calls of the source. Cut-off read from the data, not from the text of the source: active = GI50 up to about 1.1 µM and inactive = higher.

Legend:
Assay in all cases: NCI anticancer screen, dose series, 48 h
[1] = system: 786-0
[2] = system: A498
[3] = system: A549
[4] = system: ACHN
[5] = system: BT-549
[6] = system: CAKI-1
[7] = system: CCRF-CEM
[8] = system: COLO 205
[9] = system: DU-145
[10] = system: EKVX
[11] = system: HCC 2998
[12] = system: HCT-116
[13] = system: HCT-15
[14] = system: HL-60
[15] = system: HOP-62
[16] = system: HOP-92
[17] = system: HT-29
[18] = system: Hs-578T
[19] = system: IGROV-1
[20] = system: K562
[21] = system: KM12
[22] = system: LOX IMVI
[23] = system: MCF7
[24] = system: MDA-MB-231
[25] = system: MDA-MB-435
[26] = system: MDA-N
[27] = system: MOLT-4
[28] = system: Malme-3M
[29] = system: NCI-H226
[30] = system: NCI-H23
[31] = system: NCI-H460
[32] = system: NCI-H522
[33] = system: NCI/ADR-RES
[34] = system: OVCAR-3
[35] = system: OVCAR-4
[36] = system: OVCAR-5
[37] = system: OVCAR-8
[38] = system: PC-3
[39] = system: RPMI-8226
[40] = system: RXF 393
[41] = system: SF-268
[42] = system: SF-295
[43] = system: SF-539
[44] = system: SK-MEL-28
[45] = system: SK-MEL-5
[46] = system: SK-OV-3
[47] = system: SN12C
[48] = system: SNB-75
[49] = system: SR
[50] = system: SW-620
[51] = system: T47D
[52] = system: TK-10
[53] = system: U-251
[54] = system: UACC-257
[55] = system: UACC-62
[56] = system: UO-31
[57] = system: M14
[58] = system: SK-MEL-2
[59] = system: SNB-19

## CCOC(=O)c1ccc(Nc2cnc3cc(C(F)(F)F)ccc3n2)cc1
[1]
  GI50: 40.3 µM (inactive)
[2]
  GI50: > 100 µM (inactive)
[3]
  GI50: > 100 µM (inactive)
[4]
  GI50: > 100 µM (inactive)
[5]
  GI50: > 100 µM (inactive)
[6]
  GI50: > 100 µM (inactive)
[7]
  GI50: > 100 µM (inactive)
[8]
  GI50: > 100 µM (inactive)
[9]
  GI50: > 100 µM (inactive)
[10]
  GI50: > 100 µM (inactive)
[11]
  GI50: > 100 µM (inactive)
[12]
  GI50: 63 µM (inactive)
[13]
  GI50: > 100 µM
[14]
  GI50: > 100 µM (inactive)
[15]
  GI50: > 100 µM (inactive)
[16]
  GI50: > 100 µM (inactive)
[17]
  GI50: > 100 µM (inactive)
[18]
  GI50: > 100 µM (inactive)
[19]
  GI50: > 100 µM (inactive)
[20]
  GI50: > 100 µM (inactive)
[21]
  GI50: 85.1 µM (inactive)
[22]
  GI50: > 100 µM (inactive)
[23]
  GI50: > 10 µM (inactive)
[24]
  GI50: > 100 µM (inactive)
[25]
  GI50: > 100 µM (inactive)
[26]
  GI50: > 100 µM (inactive)
[27]
  GI50: > 100 µM (inactive)
[28]
  GI50: > 100 µM (inactive)
[29]
  GI50: > 100 µM (inactive)
[30]
  GI50: > 100 µM (inactive)
[31]
  GI50: > 100 µM (inactive)
[32]
  GI50: > 100 µM (inactive)
[33]
  GI50: > 100 µM (inactive)
[34]
  GI50: > 100 µM (inactive)
[35]
  GI50: > 100 µM (inactive)
[36]
  GI50: > 100 µM (inactive)
[37]
  GI50: > 100 µM (inactive)
[38]
  GI50: > 100 µM (inactive)
[39]
  GI50: > 100 µM (inactive)
[40]
  GI50: > 10 µM (inactive)
[41]
  GI50: > 100 µM (inactive)
[42]
  GI50: > 100 µM (inactive)
[43]
  GI50: 79.6 µM (inactive)
[44]
  GI50: 85.9 µM (inactive)
[45]
  GI50: > 100 µM (inactive)
[46]
  GI50: > 100 µM (inactive)
[47]
  GI50: > 100 µM (inactive)
[48]
  GI50: 44.9 µM (inactive)
[49]
  GI50: > 100 µM (inactive)
[50]
  GI50: > 100 µM (inactive)
[51]
  GI50: > 100 µM (inactive)
[52]
  GI50: > 100 µM (inactive)
[53]
  GI50: > 100 µM (inactive)
[54]
  GI50: > 100 µM (inactive)
[55]
  GI50: > 100 µM (inactive)
[56]
  GI50: > 100 µM (inactive)

## CCOC(=O)/C=C1\C[C@H](NC(=O)OCc2ccccc2)C(=O)N1CC(=O)OCC
[1]
  GI50: > 100 µM (inactive)
[2]
  GI50: > 100 µM (inactive)
[3]
  GI50: > 100 µM (inactive)
[4]
  GI50: > 100 µM (inactive)
[5]
  GI50: > 100 µM (inactive)
[6]
  GI50: > 100 µM (inactive)
[7]
  GI50: > 100 µM (inactive)
[8]
  GI50: > 100 µM (inactive)
[9]
  GI50: > 100 µM (inactive)
[10]
  GI50: > 100 µM (inactive)
[11]
  GI50: > 100 µM (inactive)
[12]
  GI50: > 100 µM (inactive)
[13]
  GI50: > 100 µM
[14]
  GI50: > 100 µM (inactive)
[15]
  GI50: > 100 µM (inactive)
[16]
  GI50: > 100 µM (inactive)
[17]
  GI50: > 100 µM (inactive)
[18]
  GI50: > 100 µM (inactive)
[19]
  GI50: > 100 µM (inactive)
[20]
  GI50: > 100 µM (inactive)
[21]
  GI50: > 100 µM (inactive)
[57]
  GI50: > 100 µM (inactive)
[23]
  GI50: > 100 µM (inactive)
[24]
  GI50: > 100 µM (inactive)
[25]
  GI50: > 100 µM (inactive)
[26]
  GI50: > 100 µM (inactive)
[27]
  GI50: > 100 µM (inactive)
[28]
  GI50: > 100 µM (inactive)
[29]
  GI50: > 100 µM (inactive)
[30]
  GI50: > 100 µM (inactive)
[31]
  GI50: > 100 µM (inactive)
[32]
  GI50: > 100 µM (inactive)
[33]
  GI50: > 100 µM (inactive)
[34]
  GI50: > 100 µM (inactive)
[35]
  GI50: > 100 µM (inactive)
[36]
  GI50: > 100 µM (inactive)
[37]
  GI50: > 100 µM (inactive)
[38]
  GI50: > 100 µM (inactive)
[39]
  GI50: > 100 µM (inactive)
[40]
  GI50: 61.2 µM (inactive)
[41]
  GI50: > 100 µM (inactive)
[42]
  GI50: > 100 µM (inactive)
[43]
  GI50: > 100 µM (inactive)
[44]
  GI50: > 100 µM (inactive)
[58]
  GI50: > 100 µM (inactive)
[45]
  GI50: > 100 µM (inactive)
[46]
  GI50: > 100 µM (inactive)
[47]
  GI50: > 100 µM (inactive)
[59]
  GI50: > 100 µM (inactive)
[48]
  GI50: > 100 µM (inactive)
[49]
  GI50: > 100 µM (inactive)
[50]
  GI50: > 100 µM (inactive)
[51]
  GI50: > 100 µM (inactive)
[52]
  GI50: > 100 µM (inactive)
[53]
  GI50: > 100 µM (inactive)
[54]
  GI50: > 100 µM (inactive)
[55]
  GI50: > 100 µM (inactive)
[56]
  GI50: > 100 µM (inactive)
